In the experiment the test system is adjuvant-induced arthritis. The experiment can be described thus: Inhibition of adjuvant-induced arthritis (hind paw swelling). It counts as in vivo, Male SD rats. As to conditions: 5 consecutive days from day 17 after adjuvant. The source says:
Inhibition of adjuvant-induced arthritis
Male SD rats were used as test subjects. Heat-kllled Mycobacterium butyricum suspended in liquid paraffin in a concentration of 0.5% was subcutaneously injected into the right hind paw of each rat. After 17 days, animals showing the clear onset of secondary inflammation also in the left hind paw were selected, and each compound of the present invention suspended in a 0.5% methyl cellulose solution was orally administered to the animals for 5 consecutive days. The volume of each hind paw at the completion of the administration was compared with that at the beginning of the administration, and the swelling-inhibitory effect was evaluated by the difference between them.

The mark [1] stands for this setting: oral dose 50 mg/kg, volume at completion vs beginning of administration.

As to `CCNC(=Nc1nc(C(C)c2cccc(C(=O)c3ccccc3)c2)n[nH]1)N1CCOCC1.Cl` (stereo not shown) [Experiment 75, N'-{3-[1-(3-Benzoylphenyl)ethyl]-1H-1,2,4-triazol-5-yl}-N-ethyl-4-morpholinecarboximidamide hydrochloride], under setting [1], the “Increase of edema volume (ml) Injected paw” value (“Increase … (ml) Injected paw” below) was -1.08 mL and the “Increase of edema volume (ml) Non-injected paw” value (from here on “Increase … (ml) Non-injected paw”) was -0.53 mL.

Regarding `CC(c1cccc(C(=O)c2ccccc2)c1)c1n[nH]c(N)n1.Cl` (stereo not shown) [Experiment 320, {3-[1-(5-Amino-1H-1,2,4-triazol-3-yl)ethyl]phenyl}(phenyl)methanone hydrochloride], for the setting “oral dose 25 mg/kg”, the “Increase … (ml) Injected paw” value is -1.20 mL and the “Increase … (ml) Non-injected paw” value was -0.53 mL.

For the molecule `CC(c1cccc(C(=O)c2ccccc2)c1)c1nc(N=C(N(C)C)N2CCOCC2)ns1.Cl` (stereo not shown) [Experiment 73, N'-{5-[1-(3-Benzoylphenyl)ethyl]-1,2,4-thiadiazol-3-yl}-N,N-dimethyl-4-morpholinecarboximidamide hydrochloride], under setting [1], the “Increase … (ml) Injected paw” value was -0.95 mL and the “Increase … (ml) Non-injected paw” value was -0.78 mL.

As to `CNC(=Nc1cc(C(C)c2cccc(C(=O)c3ccccc3)c2)ns1)N1CCOCC1.Cl` (stereo not shown) [Experiment 1, N'-{3-[1-(3-Benzoylphenyl)ethyl]-5-isothiazolyl}-N-methyl-4-morpholine carboximidamide hydrochloride], under setting [1], the “Increase … (ml) Injected paw” value was 0.12 mL and the “Increase … (ml) Non-injected paw” value is 0.02 mL.

Turning to `CC(c1ccc(-c2ccccc2)c(F)c1)c1cc(N=C(N)N2CCOCC2)n(C)n1.Cl.Cl` (stereo not shown) [Experiment 49, N'-{3-[1-(2-Fluoro[1,1'-biphenyl]-4-yl)ethyl]-1-methyl-1H-pyrazol-5-yl}-4-morpholinecarboximidamide dihydrochloride], under setting [1], the “Increase … (ml) Injected paw” value was -0.24 mL and the “Increase … (ml) Non-injected paw” value is -0.17 mL.

(Values after EP1201661A1, “HETEROAROMATIC RING COMPOUNDS” (Sumitomo Pharmaceuticals Company, Limited, priority 1999, dated 2001).)
